Laboratory results as given in ChEMBL document CHEMBL1146191, “Synthesis and evaluation of novel 1-(2-acylhydrazinocarbonyl)-cycloalkyl carboxamides as interleukin-1beta converting enzyme (ICE) inhibitors” (Bioorg Med Chem Lett, 2006).

Key:
[1] = molecular target: Caspase-8 (Homo sapiens, UniProt Q14790); experiment: Inhibition of caspase8
[2] = tested on: THP-1; experiment: Inhibition of IL1-beta secretion in human THP1 cells; format: functional, cell-based
[3] = molecular target: T1, Caspase-1 (Homo sapiens, UniProt P29466); experiment: Inhibition of ICE
T1 sequence (P29466 whole entry): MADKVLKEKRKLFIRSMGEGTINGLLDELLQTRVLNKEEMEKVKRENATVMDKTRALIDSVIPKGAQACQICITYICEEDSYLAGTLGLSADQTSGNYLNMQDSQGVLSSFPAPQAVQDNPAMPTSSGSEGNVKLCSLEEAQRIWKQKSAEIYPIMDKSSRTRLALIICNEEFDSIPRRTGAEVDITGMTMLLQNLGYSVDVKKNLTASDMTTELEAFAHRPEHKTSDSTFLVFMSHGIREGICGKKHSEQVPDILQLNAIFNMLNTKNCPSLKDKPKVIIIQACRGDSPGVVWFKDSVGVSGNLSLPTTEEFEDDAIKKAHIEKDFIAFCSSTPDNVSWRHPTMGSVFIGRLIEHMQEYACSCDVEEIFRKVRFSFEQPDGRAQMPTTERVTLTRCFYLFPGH

[4] = molecular target: T2, Caspase-3 (Homo sapiens, UniProt P42574); experiment: Inhibition of caspase3
T2 sequence (P42574 whole entry): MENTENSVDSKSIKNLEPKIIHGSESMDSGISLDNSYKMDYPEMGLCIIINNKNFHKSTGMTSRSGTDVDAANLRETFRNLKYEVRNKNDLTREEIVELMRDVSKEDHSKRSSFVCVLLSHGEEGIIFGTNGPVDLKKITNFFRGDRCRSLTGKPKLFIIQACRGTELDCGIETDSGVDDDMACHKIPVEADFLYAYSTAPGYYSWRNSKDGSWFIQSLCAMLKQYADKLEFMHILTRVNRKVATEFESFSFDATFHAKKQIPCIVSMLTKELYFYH

Chain of Caspase-8 (Q14790 217-374 limits assumed): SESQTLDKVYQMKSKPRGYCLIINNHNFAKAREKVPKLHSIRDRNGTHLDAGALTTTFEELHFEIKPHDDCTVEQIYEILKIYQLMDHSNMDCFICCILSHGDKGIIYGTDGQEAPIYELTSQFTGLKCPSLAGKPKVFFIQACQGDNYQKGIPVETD
Chain of Caspase-8 (Q14790 385-479 limits assumed): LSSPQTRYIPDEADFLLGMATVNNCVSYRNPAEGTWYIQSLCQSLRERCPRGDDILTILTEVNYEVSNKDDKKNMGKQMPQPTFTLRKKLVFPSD

Row | IC50 [1] [nM] | IC50 [2] [nM] | IC50 [3] [nM] | IC50 [4] [nM] | SMILES
1 | 70 | 450 | 50 | > 10000 | O=C1C[C@H](NC(=O)C2(C(=O)NNC(=O)c3cccc4ccccc34)CCCCC2)C(O)O1 (stereo not given in full)
2 | 1200 | 2000 | 490 | > 10000 | Cc1cccc(C(=O)NNC(=O)C2(C(=O)N[C@H]3CC(=O)OC3O)CCCC2)c1 (stereo not given in full)
3 | 230 | ≥ 2500 | ≥ 10000 | > 10000 | Cc1cccc(C)c1C(=O)NNC(=O)C1(C(=O)N[C@H]2CC(=O)OC2O)CCCCC1 (stereo not given in full)
4 | 6300 | – | 240 | > 10000 | O=C1C[C@H](NC(=O)C2(C(=O)NNC(=O)c3ccc4ccccc4c3)CCC2)C(O)O1 (stereo not given in full)
5 | 2600 | 790 | 90 | > 10000 | O=C1C[C@H](NC(=O)C2(C(=O)NNC(=O)c3ccc4ccccc4c3)CCCCC2)C(O)O1 (stereo not given in full)
6 | 2100 | 500 | 30 | > 10000 | O=C1C[C@H](NC(=O)C2(C(=O)NNC(=O)c3ccc4ccccc4c3)Cc3ccccc3C2)C(O)O1 (stereo not given in full)
7 | ≥ 10000 | 6400 | 2900 | > 10000 | O=C1C[C@H](NC(=O)C2(C(=O)NNC(=O)c3ccc4ccccc4c3)CC2)C(O)O1 (stereo not given in full)
8 | 420 | 690 | 40 | > 10000 | O=C1C[C@H](NC(=O)C2(C(=O)NNC(=O)c3cccc4ccccc34)Cc3ccccc3C2)C(O)O1 (stereo not given in full)
9 | 90 | 480 | 40 | > 10000 | O=C1C[C@H](NC(=O)C2(C(=O)NNC(=O)c3cccc4ccccc34)CCCC2)C(O)O1 (stereo not given in full)
10 | 310 | 610 | 310 | > 10000 | Cc1ccccc1C(=O)NNC(=O)C1(C(=O)N[C@H]2CC(=O)OC2O)CCC1 (stereo not given in full)
11 | 4300 | 6900 | 580 | > 10000 | Cc1ccc(C(=O)NNC(=O)C2(C(=O)N[C@H]3CC(=O)OC3O)CCC2)cc1 (stereo not given in full)
12 | 2700 | 620 | 150 | > 10000 | Cc1cccc(C(=O)NNC(=O)C2(C(=O)N[C@H]3CC(=O)OC3O)CCC2)c1 (stereo not given in full)
13 | 130 | 470 | 50 | > 10000 | O=C1C[C@H](NC(=O)C2(C(=O)NNC(=O)c3cccc4ccccc34)CCC2)C(O)O1 (stereo not given in full)
14 | 3900 | 470 | 430 | > 10000 | Cc1cccc(C(=O)NNC(=O)C2(C(=O)N[C@H]3CC(=O)OC3O)CCCCC2)c1 (stereo not given in full)
15 | 300 | ≥ 2500 | 700 | > 10000 | COc1cccc(OC)c1C(=O)NNC(=O)C1(C(=O)N[C@H]2CC(=O)OC2O)CCCCC1 (stereo not given in full)
16 | 3200 | 570 | 150 | > 10000 | O=C1C[C@H](NC(=O)C2(C(=O)NNC(=O)c3ccc4ccccc4c3)CCCC2)C(O)O1 (stereo not given in full)
17 | 1800 | 1300 | 240 | > 10000 | COc1cccc(C(=O)NNC(=O)C2(C(=O)N[C@H]3CC(=O)OC3O)CCCCC2)c1 (stereo not given in full)
18 | 1170 | 550 | 200 | > 10000 | COc1cccc(C(=O)NNC(=O)C2(C(=O)N[C@H]3CC(=O)OC3O)CCCC2)c1 (stereo not given in full)
19 | ≥ 10000 | ≥ 10000 | ≥ 10000 | > 10000 | COc1cccc(C(=O)NNC(=O)C2(C(=O)N[C@H]3CC(=O)OC3O)CC2)c1 (stereo not given in full)
20 | 2200 | 400 | 260 | > 10000 | COc1cccc(C(=O)NNC(=O)C2(C(=O)N[C@H]3CC(=O)OC3O)CCC2)c1 (stereo not given in full)
21 | 3120 | ≥ 2500 | 430 | > 10000 | Cc1cccc(C(=O)NNC(=O)C2(C(=O)N[C@H]3CC(=O)OC3O)Cc3ccccc3C2)c1 (stereo not given in full)
22 | 40 | – | 3.6 | – | CCO[C@@H]1OC(=O)C[C@@H]1NC(=O)[C@@H]1CCCN2C(=O)CC[C@H](NC(=O)c3nccc4ccccc34)C(=O)N12 [PRALNACASAN]
